Laboratory results: patent US12594282B2, “Use of small molecule compounds in the treatment of diseases mediated by lung epithelial cell injury and/or vascular endothelial cell injury” (Guangzhou Cellprotek Pharmaceutical Co., Ltd., priority 2020, dated 2026)
Peptide text beside a SMILES is read from it. * marks the point of attachment. Cbz = O=C(OCc1ccccc1)*

Tests used:
NR4A3 [1] = experiment: NR4A3 protein expression under OGD-R, RAOEC (Western blot, immunofluorescence); format: cell-based, rat; conditions: for degradation of NR4A3 during restoration injury: given together with CHX 100 μM, MG132 10, 30, 100 nM, CQ 10, 30, 100 μM
Description: (§1) HUVEC cells were cultured in modified DMEM medium containing 10% fetal bovine serum. When the cells reached about 80% confluence, the cells were digested with 0.25% trypsin, and then pipetted evenly with modified DMEM containing 10% […]. The cell concentration was adjusted to 1×10^5 cells/mL, and the cells were seeded at 400 uL/well in a 24-well plate, and the experiment was carried out when the cells grew to about 70% confluence. RAOEC cells were cultured in high-glucose DMEM medium containing 10% fetal bovine serum, and the seeding conditions were the same as those of HUVEC. During the OGD-R injury treatment, the hypoxia workstation was set to have an oxygen concentration of 1% (1% O2, 5% CO2, 94% N2), a temperature of 37° C., and a humidity of 85%. A sugar-free DMEM medium was placed in the hypoxia workstation for pre-hypoxia for 3 hours. The medium in the culture plate was aspirated, and the plate was washed twice with preheated sugar-free DMEM medium, and 100 uL of sugar-free DMEM medium was added to each well. The culture plate was placed in the hypoxia workstation, and 300 uL of pre-hypoxic sugar-free DMEM medium was added to each well, and then the culture plate was placed in the hypoxia workstation for additional hypoxia for 4 hours. Restoration was then performed. The culture plate was taken out, and the sugar-free DMEM medium was replaced with 400 uL of normal medium containing 10% fetal bovine serum, and then the plate was placed in a 37° C. 5% CO2 cell incubator for culturing for 24 hours or a specified time period. For the cells in the normal group, it was only replaced with 400 uL of new normal medium containing 10% fetal bovine serum. […]
(§2) The cells were washed twice with pre-cooled PBS, then scraped off with a cell scraper and transferred to a 1.5 mL centrifuge tube, and centrifugation was performed at 4° C. and 1000 g for 5 minutes. […] Each protein sample was then quantified using the BCA protein quantification kit. After protein quantification, protein lysis buffer was used to adjust the protein concentration of each sample to be consistent with the protein sample with the lowest concentration, and then each protein sample was sufficiently mixed with 5× protein loading buffer at a ratio of 4:1. […]

NR4A3 [2] = experiment: NR4A3 protein expression under OGD-R, HUVEC (Western blot, immunofluorescence); format: cell-based, human; conditions: for degradation of NR4A3 during restoration injury: given together with CHX 100 μM, MG132 10, 30, 100 nM, CQ 10, 30, 100 μM
Description: as §1, §2

NR4A3 [3] = experiment: NR4A3 ubiquitination after OGD-R in vascular endothelial cells (immunoprecipitation with anti-ubiquitin antibodies); format: cell-based; conditions: YC-6 10 μM; MG132 100 nM; given at restoration
Description: as §1
The cells were washed twice with pre-cooled PBS, then scraped off with a cell scraper and transferred to a 1.5 mL centrifuge tube, and centrifugation was performed at 4° C. and 1000 g for 5 minutes. […] Each protein sample was then quantified using the BCA protein quantification kit. After protein quantification, IP lysis buffer was used to adjust the protein concentration of each sample to 1 mg/mL. […]

PFKFB3 = conditions: mouse model of LPS-induced pulmonary fibrosis; cited from earlier work
[4] = test system: human alveolar epithelial A549 cells; conditions: A549 cells in vitro; cited from earlier work
[5] = 100 μM given during restoration after OGD

## C[C@@H]1C[C@@H]([C@H](O)CC2CC(=O)NC(=O)C2)C(=O)[C@@H](C)C1 [CHX, Cycloheximide]
NR4A3 [1]; [5]
  NR4A3 protein level during restoration: almost complete depletion of NR4A3 protein
NR4A3 [2]; [5]
  NR4A3 protein level during restoration: almost complete depletion of NR4A3 protein

## CCN(CC)CCCC(C)Nc1ccnc2cc(Cl)ccc12 (stereo not drawn) [CQ, Chloroquine]
NR4A3 [1]
  degradation of NR4A3 during restoration injury: did not significantly inhibit the degradation of NR4A3
NR4A3 [2]
  degradation of NR4A3 during restoration injury: did not significantly inhibit the degradation of NR4A3

## CC(C)C[C@@H](C=O)NC(=O)[C@H](CC(C)C)NC(=O)[C@H](CC(C)C)NC(=O)OCc1ccccc1 [MG132] (Cbz-Leu-Leu-Leu-aldehyde)
NR4A3 [3]
  ubiquitination modification of NR4A3 induced by restoration: increase of ubiquitinated NR4A3
NR4A3 [1]
  degradation of NR4A3 during restoration injury: could inhibit the degradation of NR4A3
NR4A3 [2]
  degradation of NR4A3 during restoration injury: could inhibit the degradation of NR4A3

## O=C(/C=C/c1cccnc1)c1ccncc1 [3PO]
PFKFB3
  upregulation of PFKFB3 expression and enhanced aerobic glycolysis: could reverse the significant upregulation of PFKFB3 expression and enhanced aerobic glycolysis
[4]
  LPS-induced apoptosis, inflammatory cytokine production, enhanced glycolytic flux and increased ROS: reversed
